# Reference: patent US10045978B2 (AB SCIENCE, priority 2010, dated 2018)
# Legend:
# [1] = tested on: patients with indolent mastocytosis with handicap bearing the D816V c-Kit mutation; experiment: Example 3 a posteriori analysis of new handicap and response criteria; format: in vivo, human
# Text: Of relevance to the invention described, the concepts of a restricted mast cell mediator release associated handicap population and a more stringently defined response criterion have been explored via a posteriori data analysis of a common study population. […] (Note, any discrepancies between directly equivalent data presented in example 2 and example 3 are due to the former being taken from preliminary data analysis and the latter being extended/validated data from that study).
# A posteriori data analysis was carried out on a new, restricted mast cell mediator release associated handicap population (wherein patients were classified as having a handicap if after appropriate symptomatic treatments they fulfilled at least one of the following criteria: number of flushes/week ≥7; pruritus score ≥6; number of stools ≥4/day (i.e. diarrhea); micturition frequency ≥8/day (i.e. pollakiuria); Hamilton rating for depression ≥14; Fatigue Impact Scale (FIS) score ≥75; or EORTC quality-of-life questionnaire (QLQ-C30) score ≥60). […]
# [2] = tested on: Ba/F3 cells expressing human or mouse wild-type c-Kit; settings: stem cell factor-induced proliferation and c-Kit tyrosine phosphorylation; cited from earlier work
# [3] = tested on: patients with severe systemic mastocytosis; experiment: Example 5 post-hoc analysis of pooled phase 2 studies; format: in vivo, human
# Description: A first phase 2 study was conducted in patients with indolent forms of mastocytosis with handicap and not bearing activating point mutations in the phosphotransferase domain of c-Kit such as the main mutation Asp-816-Val. A second phase 2 study was conducted in patients with mastocytosis with handicap and bearing activating point mutations in the phosphotransferase domain of c-Kit such as the main mutation Asp-816-Val.
# In one scenario, among those systemic mastocytosis patients from these pooled studies, 28 patients met the criteria for severe handicap at baseline, as defined as having at least one handicap selected from pruritus, flushes, fatigue or depression (defined respectively as: pruritus score ≥9, flushes frequency per week ≥8, FIS ≥75, or Hamilton score ≥19) with a total of 53 severe baseline handicaps reported (note that a given patient may present with more than one handicap). Assessment of treatment response on a handicap was defined as a ≥75% improvement from baseline on at least one handicap among pruritus, flushes, fatigue or depression.
# In an alternative scenario, among those systemic mastocytosis patients from these pooled studies, 4 patients met the criteria for severe handicap at baseline, as defined as having handicaps of both pruritus and flushes (defined respectively as: pruritus score ≥9, and flushes frequency per week ≥8) with a total of 8 severe baseline handicaps reported. Assessment of treatment response on a handicap was defined as a ≥75% improvement from baseline on at least one handicap among pruritus or flushes. Overall, at week 24 there was a response rate of 50.0%.
# [4] = tested on: Ba/F3 cells expressing the D816V c-Kit mutation; settings: proliferation; cited from earlier work
# [5] = tested on: patients with indolent mastocytosis with handicap bearing the D816V c-Kit mutation; experiment: Example 2 phase 2a study, safety; format: in vivo, human
# [6] = from W8 to W24, listed as Masitinib
smiles,measurement,setting,value
"Cc1ccc(NC(=O)c2ccc(CN3CCN(C)CC3)cc2)cc1Nc1nc(-c2cccnc2)cs1 [masitinib, 4-(4-methylpiperazin-1-ylmethyl)-N-[4-methyl-3-(4-pyridin-3ylthiazol-2-ylamino)phenyl]benzamide]",overall response rate,"[1]; new handicap thresholds and response criterion, n=11",52%
same,overall response rate,"[1]; original handicap thresholds and response criterion, n=14",62%
same,IC50,[2],150 ± 80 nM
same,Overall response ≥75%,"[3]; Week 12, at least one severe handicap at baseline (28 patients)",28.3%
same,Overall response ≥75%,"[3]; Week 12, at least one severe handicap at baseline (28 patients), listed as Masitinib",25.0%
same,Overall response ≥75%,"[3]; Week 24, at least one severe handicap at baseline (28 patients)",23.5%
same,Overall response ≥75%,"[3]; Week 24, at least one severe handicap at baseline (28 patients), listed as Masitinib",23.5%
same,Overall response ≥75%,"[3]; Week 24, severe pruritus and flushes at baseline (4 patients, 8 handicaps)",50.0
same,Cumulative response rate (≥75%): FIS only,[3]; from W8 to W24,8.0%
same,Cumulative response rate (≥75%): Flushes only,[3]; from W8 to W24,52.8%
same,Cumulative response rate (≥75%): Flushes or Pruritus,[3]; from W8 to W24,approximately 40%
same,Cumulative response rate (≥75%): Hamilton only,[3]; from W8 to W24,16.7%
same,Cumulative response rate (≥75%): Hamilton or FIS,[3]; from W8 to W24,~10%
same,Cumulative response rate (≥75%): Micturition frequency (pollakiuria) only,[3]; from W8 to W24,1.8%
same,Cumulative response rate (≥75%): Overall Response,[3]; from W8 to W24,26.1%
same,Cumulative response rate (≥75%): Pruritus only,[3]; from W8 to W24,28.6%
same,Cumulative response rate (≥75%): Stool frequency (diarrhea) only,[3]; from W8 to W24,18.4%
same,Cumulative response rate (≥75%): Flushes or Pruritus,[3]; [6],38.8%
same,Cumulative response rate (≥75%): Hamilton or FIS,[3]; [6],10.3%
same,IC50,[4],5000 ± 2000 nM
same,patients with at least one adverse event suspected to be related to masitinib,[5]; 20 patients,95%
same,patients who discontinued treatment because of a suspected adverse event,[5]; five patients,24%
same,patients with suspected adverse event that led to dose reduction,[5]; in vivo,Two
same,patients with at least one serious adverse event suspected to be related to masitinib,[5]; two patients,9%
